Measured values from US11911396B2, “Use of compound in preparation of drug for treating cerebral small vessel disease” (GUANGZHOU CELLPROTEK PHARMACEUTICAL CO., LTD, priority 2017, dated 2024).

Columns and labels:
[1] = tested on: CD163; assay: Immunofluorescence of CD163 in prefrontal cortex brain tissue, acute hypobaric hypoxia model; type: in vivo, cynomolgus monkeys; settings: FIGS. 5A and 5B
Description: (§1) FIG. 5. […] A. Immunofluorescence imaging of CD163 and Iba-1 in the brain tissue of cynomolgus monkeys. B. Statistics of relative fluorescence intensity of CD163 and Iba-1. C. Correlation analysis of relative fluorescence intensity of CD163 and Iba-1. NN: Normobaric Normoxia group; HH: Hypobaric Hypoxia group; HH+Triol: Hypobaric Hypoxia with Triol administration group; HH+PROG: Hypobaric Hypoxia with progesterone administration group. One-way ANOVA analysis and Dunnutt's t test were used to perform statistical tests, and in the latter each group was compared with the HH group, ***, p<0.001.
(§2) The thickness of paraffin sections was 5 μm. For fresh paraffin sections, the sections were dried at 37° C. overnight and then dried at 55° C. for 30 minutes. The sections were quickly placed in xylene for dewaxing. After fully dewaxing with xylene for 10 min for 3 times, absolute ethanol-95% ethanol-90% ethanol-80% ethanol-70% ethanol-50% ethanol-ddH2O were successively used for gradient rehydration. After rehydration, the sections were placed in EDTA antigen repair solution for microwave high temperature repair. After the repair was completed, it was allowed naturally cool down to room temperature. […] NIS-Elements Analysis software was used to analyze the fluorescence intensity of confocal images, which was then normalized with the fluorescence intensity per unit area according to the built-in scale. […]

[2] = tested on: Iba1; assay: Immunofluorescence of Iba1 in prefrontal cortex brain tissue, acute hypobaric hypoxia model; type: in vivo, cynomolgus monkeys; settings: FIG. 5
Description: as §1, §2

For `CC(=O)[C@H]1CC[C@H]2[C@@H]3CCC4=CC(=O)CC[C@]4(C)[C@H]3CC[C@]12C` [progesterone, reference compound], the “down-regulation of CD163 expression caused by acute hypobaric hypoxia” value [1] was “did not cancel the inhibition” and the Iba1 expression [2] was “increased”.
